According to patent publication US10696703B2, “Method for producing eushearlilides” (TOKYO UNIVERSITY OF SCIENCE FOUNDATION, priority 2014, dated 2020):

Tests used:
Assay type in all cases: cell-based
[1] = system: Staphylococcus aureus NBRC 12732; assay: MIC measurement by CLSI disk method, Staphylococcus aureus NBRC 12732; settings: for Inhibition zone: at the MIC amount per disk, mean of longest and shortest lengths of area without growth; for MIC concentration: disk method, Mueller-Hinton II agar, 36 ± 1° C., 18 to 24 hours
Description: (§1) The followings were used as test microorganisms: Staphylococcus aureus NBRC 12732, Aspergillus niger NBRC 105649, and Trichophyton mentagrophytes NBRC 5466. Measurements were performed in accordance with the disk method as defined by CLSI (Clinical and Laboratory Standards Institute). A cryopreserved strain was applied onto a test-bacterium preculture medium, and precultured under predetermined conditions. A grown colony was suspended in a test-bacterium culture medium, and cultured under predetermined conditions, and then added to a test-bacterium preparation liquid to adjust the number of cells to about 107-8 CFU/mL. Further, the prepared test-bacterium liquid was subjected to 10-times serial dilution, and cultured under predetermined conditions, and the number of cells was then counted. [table] Each compound was dissolved in methanol to 1,000 μg/mL, which was used as a sample stock solution. Otsuka distilled water in an amount of 0.75 mL was added to 0.75 mL of the sample stock solution to give a volume of 500 μg/mL. This two-fold dilution was repeated in a similar way. A total of 10 test-substance dilution series was prepared so that the concentrations of the test substance were each 1000, 500, 250, 125, 63, 31, 16, 8, 4, and 2 μg/mL. A test-bacterium liquid was uniformly spread over a corresponding sensitivity measurement agar medium in a square petri dish using a swab, and disks were placed on the medium. At this time, the distance between disks was set to 24 mm or more. A test-substance diluted liquid in an amount of 50 μL was dropped on a disk. The amount of a test substance per disk was 50, 25, 12.5, 6.3, 3.1, 1.6, 0.8, 0.4, 0.2, or 0.1 μg. Each sensitivity measurement agar medium was cultured under conditions shown in Table 1 above, and the diameter of an inhibition zone where bacterial growth was not observed was measured in mm with calipers. As control, methanol was dropped on a disk instead of a test substance.

[2] = system: Trichophyton mentagrophytes NBRC 5466; assay: MIC measurement by CLSI disk method, Trichophyton mentagrophytes NBRC 5466; settings: for Inhibition zone: at the MIC amount per disk of the same line, mean of longest and shortest lengths of area without growth; for MIC concentration: disk method, Glucose Peptone agar, 27 ± 1° C., one week
Description: as §1

[3] = system: Aspergillus niger NBRC 105649; assay: MIC measurement by CLSI disk method, Aspergillus niger NBRC 105649; settings: for Inhibition zone: at the MIC amount per disk, mean of longest and shortest lengths of area without growth; for MIC concentration: disk method, Glucose Peptone agar, 27 ± 1° C., one week
Description: as §1

[4] = system: Enterococcus faecalis ATCC29212; assay: MIC measurement by CLSI disk method, Enterococcus faecalis ATCC 29212; settings: for Inhibition zone: at the MIC amount per disk of the same line, mean of longest and shortest lengths of area without growth; for MIC: disk method, bacterial liquid 9.6 × 10^7 CFU/mL, Mueller-Hinton II agar, 35 ± 1° C., 24 h
Description: (§2) The followings were used as test microorganisms: Staphylococcus aureus (MRSA) IID 1677, Staphylococcus aureus (MRSA) ATCC 43300, Enterococcus faecalis (VRE) ATCC 51575, and Enterococcus faecalis ATCC 29212.
(§3) Measurements were performed in accordance with the disk method as defined by CLSI (Clinical and Laboratory Standards Institute).
(§4) A cryopreserved strain was applied onto a test-bacterium culture medium, and precultured under predetermined conditions (Table 3). A grown colony was again precultured (Table 3), and then suspended in a test-bacterium preparation liquid, and filtered through absorbent cotton. The number of cells was then adjusted to about 107-8 CFU/mL. This was used for the tests. Further, the prepared test-bacterium liquid was subjected to 10-times serial dilution, and cultured under predetermined conditions (Table 4), and the number of cells was then counted.
(§5) Each of the compounds according to the present invention was dissolved in methanol (Wako Pure Chemical Industries, Ltd., Special grade, Content: 99.8%) to 1000 µg/mL. This was used as a sample stock solution. Otsuka distilled water in an amount of 0.8 mL was added to 0.8 mL of the sample stock solution such that the concentration of each of the compounds according to the present invention was 500 μg/mL. This two-fold dilution was repeated in a similar way. A total of 10 test-substance dilution series were prepared so that the concentrations of the test substance were each 1000, 500, 250, 125, 63, 31, 16, 8, 4, and 2 μg/mL.
(§6) A test-bacterium liquid was uniformly spread over a sensitivity measurement agar medium in a square petri dish (230×80×14.5 mm, Eiken Chemical Co., Ltd.) using a swab, and φ8-mm thick disks (for antibiotics assay, Advantec Co., Ltd.) were placed on the medium. At this time, the distance between disks was set to 24 mm or more. A test-substance diluted liquid in an amount of 50 μL was dropped on a disk. The amount of a test substance per disk was 50, 25, 12.5, 6.3, 3.1, 1.6, 0.8, 0.4, 0.2, or 0.1 μg. A sensitivity measurement agar medium was cultured under predetermined conditions (Table 4), and the width of an inhibition zone where bacterial growth was not observed was measured in mm with calipers. As control, methanol was dropped on a disk instead of a test substance.

[5] = system: Enterococcus faecalis (VRE) ATCC51575; assay: MIC measurement by CLSI disk method, VRE ATCC 51575; settings: for Inhibition zone: at the MIC amount per disk, mean of longest and shortest lengths of area without growth; for MIC: disk method, bacterial liquid 1.9 × 10^8 CFU/mL, Mueller-Hinton II agar, 35 ± 1° C., 24 h
Description: as §2, §3, §4, §5, §6

[6] = system: Staphylococcus aureus (MRSA) IID1677; assay: MIC measurement by CLSI disk method, MRSA IID 1677; settings: for Inhibition zone: at the MIC amount per disk, mean of longest and shortest lengths of area without growth; for MIC: disk method, bacterial liquid 7.3 × 10^7 CFU/mL, Mueller-Hinton II agar, 35 ± 1° C., 24 h
Description: as §2, §3, §4, §5, §6

[7] = system: Staphylococcus aureus (MRSA) ATCC43300; assay: MIC measurement by CLSI disk method, MRSA ATCC 43300; settings: for Inhibition zone: at the MIC amount per disk, mean of longest and shortest lengths of area without growth; for MIC: disk method, bacterial liquid 1.0 × 10^8 CFU/mL, Mueller-Hinton II agar, 35 ± 1° C., 24 h
Description: as §2, §3, §4, §5, §6

SMILES | MIC concentration [1] [μg/disk] | MIC concentration [2] [μg/disk] | MIC concentration [3] [μg/disk] | MIC [4] [μg/disk] | MIC [5] [μg/disk] | MIC [6] [μg/disk] | MIC [7] [μg/disk] | Inhibition zone [1] [mm] | Inhibition zone [2] [mm] | Inhibition zone [3] [mm] | Inhibition zone [4] [mm] | Inhibition zone [5] [mm] | Inhibition zone [6] [mm] | Inhibition zone [7] [mm]
C[C@@H]1C/C=C/CC/C=C/CCCCCCCCCCCC[C@@H](OP(=O)([O-])OCC[N+](C)(C)C)CC(=O)O1 [Compound A] | 50 | 25 | 50 |  |  |  |  | 2 | 2.5 | 3.7 |  |  |  | 
C[C@@H]1C/C=C/CC/C=C/CCCCCCCCCCCC[C@H](OP(=O)([O-])OCC[N+](C)(C)C)CC(=O)O1 [Compound E, (3S,16E,20E,23R)-(+)-Eushearilide] |  |  |  | >50 | 50 | 50 | 50 |  |  |  | 0.0 | 6.9 | 2.2 | 3.3
C[C@H]1C/C=C/CC/C=C/CCCCCCCCCCCC[C@@H](OP(=O)([O-])OCC[N+](C)(C)C)CC(=O)O1 [Compound F, (3R,16E,20E,23S)-(−)-Eushearilide] |  |  |  | 50 | 50 | 50 | 50 |  |  |  | 7.7 | 5.8 | 3.1 | 2.4

Continued, in another order:

MIC concentration [1] [μg/disk] | MIC concentration [2] [μg/disk] | MIC concentration [3] [μg/disk] | MIC [4] [μg/disk] | MIC [5] [μg/disk] | MIC [6] [μg/disk] | MIC [7] [μg/disk] | SMILES | Inhibition zone [1] [mm] | Inhibition zone [2] [mm] | Inhibition zone [3] [mm] | Inhibition zone [4] [mm] | Inhibition zone [5] [mm] | Inhibition zone [6] [mm] | Inhibition zone [7] [mm]
 |  |  | 50 | 50 | 50 | 50 | C[C@H]1C/C=C/CC/C=C\CCCCCCCCCCCC[C@@H](OP(=O)([O-])OCC[N+](C)(C)C)CC(=O)O1 [Compound H, (3R,16Z,20E,23S)-(−)-Eushearilide] |  |  |  | 3.3 | 5.5 | 3.0 | 2.7
 |  |  | 50 | 50 | 50 | 50 | C[C@H]1C/C=C/CC/C=C\CCCCCCCCCCCC[C@H](OP(=O)([O-])OCC[N+](C)(C)C)CC(=O)O1 [Compound G, (3S,16Z,20E,23S)-(+)-Eushearilide] |  |  |  | 8.4 | 6.7 | 2.3 | 0.9
 |  |  | 25 | 50 | 50 | 50 | C[C@H]1C/C=C/CC/C=C/CCCCCCCCCCCC[C@H](OP(=O)([O-])OCC[N+](C)(C)C)CC(=O)O1 [Compound D, (3S,16E,20E,23S)-(+)-Eushearilide] |  |  |  | 2.2 | 4.7 | 1.4 | 3.0
50 | 12.5 | 50 |  |  |  |  | C[C@@H]1C/C=C/CC/C=C\CCCCCCCCCCCC[C@H](OP(=O)([O-])OCC[N+](C)(C)C)CC(=O)O1 [Compound C] | 1.5 | 5.1 | 1 |  |  |  | 
50 | 12.5 | 50 |  |  |  |  | C[C@@H]1C/C=C/CC/C=C\CCCCCCCCCCCC[C@@H](OP(=O)([O-])OCC[N+](C)(C)C)CC(=O)O1 [Compound B] | 2.2 | 3.9 | 3.7 |  |  |  | 
